Consider 2 compounds from patent US20200199575A1, “ROLE OF EXOSOMES, EXTRACELLULAR VESICLES, IN THE REGULATION OF METABOLIC HOMEOSTASIS” (CHILDREN'S HOSPITAL MEDICAL CENTER, priority 2017, published 2020).

pIC50: −log10 of the molar value. “Also recorded” adds a separate entry of the source.

What is called pIC50 is the negative decadic logarithm of the IC50, by convention in mol/L.

The subject of data set [1] is exosome secretion and RNA loading onto exosomes. The conditions noted are these: cited from earlier work.
For the next data set, the target named is T1, N-SMase (Rattus norvegicus, UniProt O35049).
T1 construct: host or cells: rat brain
T1 sequence (O35049 1-655): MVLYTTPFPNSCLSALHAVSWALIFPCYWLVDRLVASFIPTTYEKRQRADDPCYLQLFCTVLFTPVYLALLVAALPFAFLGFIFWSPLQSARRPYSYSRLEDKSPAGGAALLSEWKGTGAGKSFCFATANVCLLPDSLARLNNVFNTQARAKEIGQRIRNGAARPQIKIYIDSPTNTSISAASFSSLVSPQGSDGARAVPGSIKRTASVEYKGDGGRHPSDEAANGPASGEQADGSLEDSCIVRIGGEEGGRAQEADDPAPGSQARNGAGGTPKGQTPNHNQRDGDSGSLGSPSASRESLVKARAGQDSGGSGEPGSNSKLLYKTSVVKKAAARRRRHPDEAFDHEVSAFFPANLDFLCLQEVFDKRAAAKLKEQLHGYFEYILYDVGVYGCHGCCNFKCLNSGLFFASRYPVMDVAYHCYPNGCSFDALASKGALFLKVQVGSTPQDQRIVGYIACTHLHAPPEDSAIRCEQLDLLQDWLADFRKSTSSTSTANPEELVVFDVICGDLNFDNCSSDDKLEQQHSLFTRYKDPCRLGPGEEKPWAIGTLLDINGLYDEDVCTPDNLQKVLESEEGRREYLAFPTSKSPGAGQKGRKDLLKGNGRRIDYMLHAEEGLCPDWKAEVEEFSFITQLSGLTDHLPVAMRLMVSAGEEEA
The conditions noted are these: rat brain; non-competitive inhibitor; cited from earlier work.

The test system of data set [2] is primary mouse bone marrow-derived macrophages (BMDMs). As to the kind of experiment: Exosome transfer from treated primary mouse hepatocytes to bone marrow-derived macrophages, inflammatory response (IL-6 mRNA). The conditions noted are these: PA 100 μM for 20 hours; exosome fraction by MagCapture kit. An excerpt: (§1) (A) A scheme of the exosome transfer from cultured primary mouse hepatocytes to primary mouse bone marrow-derived macrophages (BMDMs). […] The same number of exosomes was used.
(§2) SMPD3 plays a critical role in EV secretion and affects components of EV such as RNA.

The test system of a further data set is SMPD3.
Text: as §1, §2

For `Cl.Cl.O=C(/C=C/c1ccc(/C=C/C(=O)Nc2ccc(C3=NCCN3)cc2)cc1)Nc1ccc(C2=NCCN2)cc1` [GW4869], in data set [1], the “Effect on RNA loading onto exosomes” value is listed as “inhibit” and the “Effect on exosome secretion” value is reported as “inhibit”. The negative logarithm of the IC50 (pIC50) on N-SMase is 6.00.

As to `CCCCCCCCCCCCCCCC(=O)O` [palmitate], the “Inflammatory effect (IL-6 mRNA expression) in BMDMs of exosomes from hepatocytes treated with palmitate” value in data set [2] is “increase expression of IL-6 mRNA in BMDMs; also recorded: caused higher inflammatory responses in primary murine macrophages”. Moreover, the “Expression of SMPD3 in cultured hepatocytes on palmitate exposure” value in the data set with SMPD3 is “induced”.
